Measured values as given in US20020055174A1, “Complex for transferring an anionic substance of interest into a cell” (priority 2000, published 2002).
“Also recorded” adds a separate entry of the source. Bridge positions count the residues as written; N and C are the ends. Ends that are not written are not given here.

How the values were obtained:
[1] = Liposome leakage assay, POPC/cholesterol 3:2 liposomes; conditions: POPC/chol 3:2 liposomes
Procedure: Increasing amounts of the indicated peptides were incubated with POPC/Cholesterol (3:2 mol/mol) liposomes for 30 min at RT. Emitted fluorescence was plotted against peptide concentration. […] B) Liposome leakage activity with complexes of ppTG1 and the plasmid pTG11236 at pH7.
1-Palmitoyl-2-Oleoyl-phosphatidylcholine (POPC) liposomes were prepared by the repeated freeze-thaw method followed by extrusion (Olson et al., 1979, Biochim. Biophys. Acta 557, 19-23). Ten μ-moles of POPC in chloroform were placed in a glass tube and solvent was evaporated under reduced pressure using a Labconco Rapidvap vortex evaporator (Uniequip, Germany). The resulting lipid film was hydrated with 0.5 ml of an aqueous solution of calcein (lOOmM calcein, 3.75 eq. NaOH, 50mM NaCl). The lipid suspension was sonicated until the solution became clear using a sonic water bath (Bransonic 221, Branson Ultrasonics Corp., USA). Five cycles of freeze-thaw were performed before liposomes were extruded by 4 passages through 200 nm pore diameter polycarbonate membranes (Nuclepore, Costar, Mass., USA). Free calcein was removed from calcein encapsulated into liposomes by gel exclusion chromatography using a Sephadex G-50 column (3 cm×14 cm) and a 200 mM NaCl, 25 mM HEPES, pH 7.3 solution as the elution buffer. The final lipid concentration was determined by a phosphorus assay (Bartlett, 1959, J. Biol. Chem. 234, 466-469). Liposomes' diameter was determined by dynamic laser light scattering using a Coulter N4 Plus submicron particle sizer (Coultronics France S. A, France). Measurements were performed within a 3 nm-10000 nm size window with a fixed 90° scattered light angle.
The liposome leakage assay was carried out as described in Planck et al. (1994, J. Biol. Chem. 269, 12918-12924). The liposome stock solution was diluted to a lipid concentration of 45 μM in 1.8× assay buffer (360 mM NaCl, 36 mM sodium citrate, pH 5 and pH 7). A 1:5 serial dilution of the tested peptide was carried out in a 96-well microtiter plate by transferring 20 μl of the peptide solution from one well to the next well and diluting with 80 μl H2O. 100 μl of the liposome solution was added in each well (final lipid concentration: 25 μM) and, after 30 min at room temperature, was assayed for fluorescence at 535 nm (excitation: 485 nm) on a microtiter plate fluorescence spectrometer (WALLAC, 1420 multilabel counter Victor). These conditions are appropriate to analyze fluorescein and as close as possible to the appropriate excitation/ emission profile of calcein (495 nm /515 nm). The value for 100% leakage was obtained by addition of 1 μl of a 10% Triton X-100 solution. Leakage activity was plotted against peptide concentration.
Liposome leakage activities were analyzed on liposomes consisting of POPC and cholesterol at a molar ratio of 3:2 (mol/mol).
Complexes of ppTG1 with plasmid DNA pTG11236 were tested for liposome leakage activity on POPC/chol 3:2 liposomes.
The series of ppTG1 derivatives as they are listed in Materials and Methods was tested for liposome leakage activity on POPC/chol 3:2 liposomes at pH7.

[2] = tested on: HeLa cells; test: Transfection in vitro, luciferase plasmid pTG11236; format: cell-based; conditions: for transfection / gene transfer efficiency in vitro, in words: HeLa cells, 50 ng pTG11236, increasing charge ratios, day 1
Procedure: Cells were plated on 24 well plates at a density of 4×10^4 (293-EBNA ) or 7×10^4 (HeLa, Renca) cells/well in DMEM supplemented with 10% FCS. The next day, the medium was replaced by 200 μl serum-free DMEM and plasmid (pTG11056 or pTG11236)/peptide complexes or plasmid/peptide/lipid complexes were prepared in 30 μl 0.9% NaCl or 5% glucose. After 20 min at room temperature these complexes were added to the cells which were then incubated for 2-3 h at 37° C. and 5% CO2 before 1 ml serum-containing DMEM was added. Approximately 20-hours later, cells were lysed by addition of 100 μl 1× Promega lysis buffer, 20 μl of the lysates were analysed for luciferase activity. Proteins were quantified with the bicinchonic acid (BCA) colorimetric method (Smith, Anal. Biochem. 150 (1985), 76-85).
In another experiment, 7×10^4 HeLa cells, seeded on 24-well plates the day before transfection, were transfected with 0.5 μg or 0.05 μg pTG11236, complexed with Lipofectin or ppTG1. The plasmid/peptide complexes were prepared in 30 μl of 5% glucose or 0.9% NaCl and added to the cells (200 μl serum-free medium) after 20 min at room temperature. Serum-containing medium was added after 3 h, the cells were harvested the next day.
A comparison of the effect on transfection efficiency of ppTG1 and JTS-1-K13 was carried out in HeLa cells. Complexes of 0.5 μg or 0.05 μg pTG11236 were formed with increasing amounts the respective peptide.
A comparison of ppTG1 and KALA was carried out in HeLa and CHO cells. 5×10^4 cells were seeded on 24 well plates. The next day, cells were transfected with 500 ng and 50 ng of pTG11236, complexed with ppTG1 or KALA in 30 μl 0.9% NaCl. The charge ratio +/− varied from 1, 2, 3, 4, 7 to 10. Cells were harvested 20 h after transfection and lysis was obtained in 100 μl Promega lysis buffer. Luciferase activity and total protein concentrations in 20 μl were determined.
HeLa cells were seeded at a density of 6×10^4 cells on 24 well plates. The next day, cells were incubated with 200 μl serum-free medium, 30 μl of plasmid (50 ng)/peptide/lipid mixtures were added and incubated for 3 h at 37° C. in 5% CO2. 1 ml of DMEM+10% FCS was then added. The next day, the medium was removed and cells were washed with 500 μl of PBS and subsequently treated with 100 μl of Promega lysis buffer. Plates were stored at −80° C. until luciferase activity was measured of 20 μl of the cell lysate. The protein assay was performed using the Pierce BCA kit.
JTS1 was dissolved to 1 mg/ml in 1 mM NaOH and mixed with DNA diluted in 5% glucose. ppTG1 was then added to this solution. The pcTG90/DOPE ppTG1 mixtures were prepared as described in Example 6. Transfection assays were performed on HeLa cells with 50 ng of plasmid as described in Example 6.
The series of ppTG1 derivatives listed in Material and Methods were tested for their gene transfer efficiencies in Hela cells. 6×10^4 cells were transfected with 50 ng pTG11236 complexed with increasing amounts of peptide. Luciferase activity was analyzed day 1 after transfection. The results are shown in FIG. 10B (ppTG20, ppTG21), FIG. 10C(ppTG25, ppTG26, ppTG27), FIG. 10D (ppTG28 to ppTG33), FIG. 10E (PEG-ppTG1 and PEG-ppTG20), FIG. 10F (ppTG22 to ppTG24) and FIG. 10G (ppTG20-D).

[3] = tested on: plasmid pTG11236; test: Gel retardation assay (DNA binding)
Procedure: 3μg of the plasmid pTG11236 were incubated with increasing amounts of the respective peptide in a final volume of 30 μl with 0.9% NaCl. After 20 min of incubation at room temperature, 6 μl 5× loading buffer (glycerol and bromphenol blue in TAE buffer) were added and 10 μl of these solutions were analyzed on a 1% agarose gel in the presence of ethidium bromide.
The ability of ppTG1 peptide to complex DNA was analyzed by gel retardation assays. […] After 20 minutes incubation at room temperature, loading buffer was added and 10 μl of the resulting solution were analyzed on a 1% agarose gel.
ppTG1 derivatives as they are indicated in Materials and Methods, were tested for their capacity to bind plasmid DNA by gel retardation assays.

[4] = tested on: B6SJL mice; conditions: for gene transfer efficiency in the lung, in words: i.v., 50 or 60 μg pTG11236, day 1
Procedure: Indicated amounts of the luciferase expression plasmid pTG11236 were mixed with ppTG1 and /or pcTG90/DOPE. The resulting formulations were injected intramuscularly(30 μl), intravenously(250 μl) into mice or intratumorally (Renca tumors, 100 μgl). Muscles, tumors or organs were recovered at the indicated points of time, macerated and tested for luciferase activity with the luciferase assay kit from Promega.
60 μg or 30 μg of the plasmid pTG11236 were mixed with peptide ppTG1 and/or with a pcTG90/DOPE 1:2 mixture in 250 μl 5% glucose. After 20 min incubation at room temperature, the complexes were intravenously injected into B6SJL mice. Mice were sacrificed at day 1. The lungs were recovered, total protein was extracted and luciferase activity was analysed.
The potential of gene transfer with mono-component peptide vectors was investigated in vivo. Fifty or sixty μg of the luciferase expression plasmid pTG11236 were complexed with pcTG90/DOPE (1:2) [+/−] 10 in 250 μl 5% glucose (Meyer et al. 2000). The resulting lipoplex vector served as reference for gene transfer studies with pTG11236 complexed with ppTG1, ppTG20 and ppTG32 in 250 μl 5% glucose. Five mice per group were intravenously injected, the animals were sacrificed at day 1 after injection. Lungs were tested for luciferase activity.

[5] = pH 5 vs pH 7; cited from earlier work

Substance | liposome leakage activity, in words ([1]; pH7) | transfection / gene transfer efficiency in vitro, in words [2] | other results
GLFRRLLRLLRRLWRLLLRA [ppTG29] | slightly reduced liposome leakage activity | comparable to ppTG1 and ppTG20; also recorded: did not change transfection efficiencies | –
GVFRAVVRVVRSVWRVVVRA [ppTG33] | diminished liposome leakage activity; also recorded: significantly reduced liposome leakage activity | diminished gene transfer efficiency in vitro | –
GLFHALLHLLHSLWHLLLHA | comparable to ppTG1 | strongly reduced | DNA binding, in words ([3]; pH5): binds plasmid DNA at pH5; also recorded: can bind DNA at pH5
WEAKLAKALAKALAKHLAKALAKALKACEA [reference compound] | could not liberate calcein | – | liposome leakage activity, in words ([1]; pH5): could not liberate calcein; gene transfer at optimal charge ratio lower than for ppTG1 ([2]; HeLa, 500 ng pTG11236): 4 fold; gene transfer efficiency in the lung, in words [4]: undetectable; also recorded: inefficient
GVFKAVVKVVKSVWKVVVKA [ppTG32] | diminished liposome leakage activity; also recorded: significantly reduced liposome leakage activity | diminished gene transfer efficiency in vitro | gene transfer efficiency in the lung, in words [4]: drastically reduced gene transfer efficiency; also recorded: did not lead to detectable reporter gene expression
GIFKAIIKIIKSIWKIIIKA [ppTG30] | – | diminished gene transfer efficiency in vitro; also recorded: reduced the efficiency of gene transfer | –
GLFEALLELLESLWELLLEA [reference compound] | reduced | – | liposome leakage activity, in words ([1]; pH5): high lysis activity; lysis of calcein containing phosphatidylcholine liposomes [5]: capable of lysing calcein containing phosphatidylcholine liposomes at pH 5, more efficiently than at a pH 7; retardation of plasmid DNA ([3]; 3 μg pTG11236 and 0.1 μg to 10 μg peptide): not observed
CGLFKALLKLLKSLWKLLLKA [ppTG23] | slightly reduced membrane destruction | – | –
GIFRAIIRIIRSIWRIIIRA [ppTG31] | slightly reduced liposome leakage activity | diminished gene transfer efficiency in vitro; also recorded: reduced the efficiency of gene transfer | –
GLFKKLLKLLKKLWKLLLKA [ppTG28] | slightly reduced liposome leakage activity | comparable to ppTG1 and ppTG20; also recorded: did not change transfection efficiencies | –
GLFRALLRLLRSLWRLLLRA [ppTG20] | – | – | toxicity in vivo, in words ([4]; i.v. injection of peptide/pTG11236 complexes): less toxic than ppTG1
CGLFKALLKLLKSLWKLLLKAC (cysteine pairing not given here) [ppTG24] | slightly reduced membrane destruction | – | –
Gly-Leu-Phe-Glu-Ala-Leu-Leu-Glu-Leu-Leu-Glu-Ser-Leu-Trp-Glu-Leu-Leu-Leu-Glu-Ala-Cys-Cys-Tyr-Lys-Ala-Lys-Lys-Lys-Lys-Lys-Lys-Lys-Lys--Trp-Lys-Lys-Lys-Lys-Gln-Ser (GLFEALLELLESLWELLLEACCYKAKKKKKKKKWKKKKQS; disulfide 21-22) [JTS-1-K13, reference compound] | impeded in calcein release | – | liposome leakage activity, in words ([1]; pH5): low level release; transfection ([2]; 0.05 μg plasmid DNA, FIG. 4): remains low; luciferase expression ([2]; 0.5 μg pTG11236 complexed with 1.5 μg peptide): high level of luciferase expression; gene transfer efficiency in the lung, in words [4]: low
Gly-Leu-Phe-Arg-Ala-Leu-Leu-Arg-Leu-Leu-Arg-Ser-Leu-Trp-Arg-Leu-Leu-Leu-Arg-Ala (GLFRALLRLLRSLWRLLLRA; also: D-amino acids, places not given here) [ppTG20-D] | retained | retained; also recorded: as efficient as ppTG1 | –
